From US10597388B2, “Pyridazinone herbicides” (FMC CORPORATION, priority 2014, dated 2020)

What was measured:
Experiment in all cases: Test D controlled growth environment herbicide test, pre- and postemergence
Format in all cases: in vivo
[1] = tested on: ryegrass, Italian (Italian ryegrass, Lolium multiflorum)
How it was run: (§1)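 Pre-emergence: seeds sown in silt loam soil were sprayed with compound in a non-phytotoxic solvent mix containing surfactant. Post-emergence: plants at 2 to 18 cm (1- to 4-leaf stage) in peat moss/vermiculite medium got the same formulation. Visual 0–100 rating versus controls after 14 to 21 d.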

[2] = tested on: mustard, wild (wild mustard, Sinapis arvensis)
How it was run: as §1

[3] = tested on: chamomile (scentless chamomile, Matricaria inodora)
How it was run: as §1

[4] = tested on: bluegrass (annual bluegrass, Poa annua)
How it was run: as §1

[5] = tested on: lambsquarters (Chenopodium album)
How it was run: as §1

[6] = tested on: wheat, winter (winter wheat, Triticum aestivum)
How it was run: as §1

[7] = tested on: wheat, spring (spring wheat, Triticum aestivum)
How it was run: as §1

[8] = tested on: speedwell (bird's-eye speedwell, Veronica persica)
How it was run: as §1

[9] = tested on: oilseed rape (Brassica napus)
How it was run: as §1

[10] = tested on: blackgrass (Alopecurus myosuroides)
How it was run: as §1

[11] = tested on: barley, spring (spring barley, Hordeum vulgare)
How it was run: as §1

[12] = tested on: field poppy (Papaver rhoeas)
How it was run: as §1

[13] = tested on: foxtail, green (green foxtail, Setaria viridis)
How it was run: as §1

[14] = Postemergence, 31 g ai/ha, scale 0 to 100 (0 no effect, 100 complete control)
[15] = Postemergence, 125 g ai/ha, visual rating on scale 0 (no effect) to 100 (complete control), 14 to 21 d
[16] = Postemergence, 250 g ai/ha, scale 0 to 100 (0 no effect, 100 complete control)
[17] = Preemergence, 125 g ai/ha, scale 0 to 100 (0 no effect, 100 complete control)
[18] = Preemergence, 250 g ai/ha, scale 0 to 100 (0 no effect, 100 complete control)
[19] = postemergence, 62 g ai/ha, scale 0 to 100, 0 no effect, 100 complete control
[20] = Preemergence, 62 g ai/ha, scale 0 to 100 (0 no effect, 100 complete control)

## CC(=O)Oc1c(C)nn(C)c(=O)c1-c1ccc(F)c2ccccc12 [Compound 90]
[1]; [14]
  Ryegrass, Italian plant response rating: 75
[1]; [15]
  Plant response rating, Ryegrass, Italian: 95
[1]; [16]
  Plant response rating, Ryegrass, Italian: 100
[1]; Preemergence, 31 g ai/ha
  Plant response rating (scale of 0 to 100), Ryegrass, Italian: 100
[1]; Preemergence, 62 g ai/ha
  Plant response rating (scale of 0 to 100), Ryegrass, Italian: 100
[1]; [17]
  Plant response rating, Ryegrass, Italian: 100
[1]; [18]
  Plant response rating, Ryegrass, Italian: 100
[1]; [19]
  Plant response rating, Ryegrass, Italian: 90
[2]; [14]
  Mustard, Wild plant response rating: 80
[2]; [15]
  Plant response rating, Mustard, Wild: 100
[2]; [16]
  Plant response rating, Mustard, Wild: 100
[2]; Preemergence, 31 g ai/ha
  Plant response rating (scale of 0 to 100), Mustard, Wild: 35
[2]; Preemergence, 62 g ai/ha
  Plant response rating (scale of 0 to 100), Mustard, Wild: 98
[2]; [17]
  Plant response rating, Mustard, Wild: 100
[2]; [18]
  Plant response rating, Mustard, Wild: 90
[2]; [19]
  Plant response rating, Mustard, Wild: 95
[3]; [14]
  Chamomile plant response rating: 70
[3]; [15]
  Plant response rating, Chamomile: 98
[3]; [16]
  Plant response rating, Chamomile: 100
[3]; Preemergence, 31 g ai/ha
  Plant response rating (scale of 0 to 100), Chamomile: 100
[3]; Preemergence, 62 g ai/ha
  Plant response rating (scale of 0 to 100), Chamomile: 100
[3]; [17]
  Plant response rating, Chamomile: 100
[3]; [18]
  Plant response rating, Chamomile: 100
[3]; [19]
  Plant response rating, Chamomile: 75
[4]; [14]
  Bluegrass plant response rating: 5
[4]; [15]
  Plant response rating, Bluegrass: 25
[4]; [16]
  Plant response rating, Bluegrass: 30
[4]; Preemergence, 31 g ai/ha
  Plant response rating (scale of 0 to 100), Bluegrass: 0
[4]; [20]
  Plant response rating, Bluegrass: 40
[4]; [17]
  Plant response rating, Bluegrass: 65
[4]; [18]
  Plant response rating, Bluegrass: 65
[4]; [19]
  Plant response rating, Bluegrass: 15
[5]; [14]
  Lambsquarters plant response rating: 90
[5]; [15]
  Plant response rating, Lambsquarters: 100
[5]; [16]
  Plant response rating, Lambsquarters: 100
[5]; Preemergence, 31 g ai/ha
  Plant response rating (scale of 0 to 100), Lambsquarters: 90
[5]; Preemergence, 62 g ai/ha
  Plant response rating (scale of 0 to 100), Lambsquarters: 98
[5]; [17]
  Plant response rating, Lambsquarters: 85
[5]; [18]
  Plant response rating, Lambsquarters: 100
[5]; [19]
  Plant response rating, Lambsquarters: 90
[6]; [14]
  Wheat, Winter plant response rating: 20
[6]; [15]
  Plant response rating, Wheat, Winter: 40
[6]; [16]
  Plant response rating, Wheat, Winter: 40
[6]; Preemergence, 31 g ai/ha
  Plant response rating (scale of 0 to 100), Wheat, Winter: 0
[6]; Preemergence, 62 g ai/ha
  Plant response rating (scale of 0 to 100), Wheat, Winter: 10
[6]; [17]
  Plant response rating, Wheat, Winter: 25
[6]; [18]
  Plant response rating, Wheat, Winter: 50
[6]; [19]
  Plant response rating, Wheat, Winter: 35
[7]; [14]
  Wheat, Spring plant response rating: 25
[7]; [15]
  Plant response rating, Wheat, Spring: 40
[7]; [16]
  Plant response rating, Wheat, Spring: 50
[7]; Preemergence, 31 g ai/ha
  Plant response rating (scale of 0 to 100), Wheat, Spring: 20
[7]; Preemergence, 62 g ai/ha
  Plant response rating (scale of 0 to 100), Wheat, Spring: 35
[7]; [17]
  Plant response rating, Wheat, Spring: 60
[7]; [18]
  Plant response rating, Wheat, Spring: 70
[7]; [19]
  Plant response rating, Wheat, Spring: 35
[8]; [14]
  Speedwell plant response rating: 100
[8]; [15]
  Plant response rating, Speedwell: 100
[8]; [16]
  Plant response rating, Speedwell: 100
[8]; Preemergence, 31 g ai/ha
  Plant response rating (scale of 0 to 100), Speedwell: 100
[8]; Preemergence, 62 g ai/ha
  Plant response rating (scale of 0 to 100), Speedwell: 100
[8]; [17]
  Plant response rating, Speedwell: 100
[8]; [18]
  Plant response rating, Speedwell: 100
[8]; [19]
  Plant response rating, Speedwell: 100
[9]; [14]
  Oilseed Rape plant response rating: 0
[9]; [15]
  Plant response rating, Oilseed Rape: 15
[9]; [16]
  Plant response rating, Oilseed Rape: 70
[9]; Preemergence, 31 g ai/ha
  Plant response rating (scale of 0 to 100), Oilseed Rape: 0
[9]; Preemergence, 62 g ai/ha
  Plant response rating (scale of 0 to 100), Oilseed Rape: 0
[9]; [17]
  Plant response rating, Oilseed Rape: 0
[9]; [18]
  Plant response rating, Oilseed Rape: 0
[9]; [19]
  Plant response rating, Oilseed Rape: 5
[10]; [14]
  Blackgrass plant response rating: 15
[10]; [15]
  Plant response rating, Blackgrass: 55
[10]; [16]
  Plant response rating, Blackgrass: 65
[10]; Preemergence, 31 g ai/ha
  Plant response rating (scale of 0 to 100), Blackgrass: 25
[10]; [20]
  Plant response rating, Blackgrass: 35
[10]; [17]
  Plant response rating, Blackgrass: 45
[10]; [18]
  Plant response rating, Blackgrass: 60
[10]; [19]
  Plant response rating, Blackgrass: 35
[11]; [14]
  Barley, Spring plant response rating: 10
[11]; [15]
  Plant response rating, Barley, Spring: 35
[11]; [16]
  Plant response rating, Barley, Spring: 40
[11]; Preemergence, 31 g ai/ha
  Plant response rating (scale of 0 to 100), Barley, Spring: 0
[11]; [20]
  Plant response rating, Barley, Spring: 0
[11]; [17]
  Plant response rating, Barley, Spring: 20
[11]; [18]
  Plant response rating, Barley, Spring: 35
[11]; [19]
  Plant response rating, Barley, Spring: 25
[12]; [14]
  Field Poppy plant response rating: 65
[12]; [15]
  Plant response rating, Field Poppy: 75
[12]; [16]
  Plant response rating, Field Poppy: 90
[12]; Preemergence, 31 g ai/ha
  Plant response rating (scale of 0 to 100), Field Poppy: 15
[12]; Preemergence, 62 g ai/ha
  Plant response rating (scale of 0 to 100), Field Poppy: 100
[12]; [17]
  Plant response rating, Field Poppy: 100
[12]; [18]
  Plant response rating, Field Poppy: 100
[12]; [19]
  Plant response rating, Field Poppy: 70
[13]; [14]
  Foxtail, Green plant response rating: 25
[13]; [15]
  Plant response rating, Foxtail, Green: 70
[13]; [16]
  Plant response rating, Foxtail, Green: 75
[13]; Preemergence, 31 g ai/ha
  Plant response rating (scale of 0 to 100), Foxtail, Green: 25
[13]; Preemergence, 62 g ai/ha
  Plant response rating (scale of 0 to 100), Foxtail, Green: 45
[13]; [17]
  Plant response rating, Foxtail, Green: 70
[13]; [18]
  Plant response rating, Foxtail, Green: 95
[13]; [19]
  Plant response rating, Foxtail, Green: 55
